Test results: patent publication US11446298B2, “Pyrimidine derivatives” (Idorsia Pharmaceuticals Ltd, priority 2017, dated 2022)

Assays:
Type in all cases: cell-based
EP4 = biological target: T1, EP4 (Homo sapiens, UniProt P35408); experiment: hEP4 cAMP Assay (BT549 breast cancer cells, HTRF cAMP, PGE2 6 nM); conditions: antagonistic activity, PGE2 6 nM (EC80)
T1 construct: BT549 breast cancer cells, express high endogenous EP4 levels and very low EP2 levels; host or cells: BT549 breast cancer cells
How it was run: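 BT549 cells (endogenous EP4, very low EP2) in HBSS/20 mM HEPES/0.2% BSA/2 mM IBMX, pre-incubated 45 min RT with compound, then stimulated 30 min RT with PGE2 6 nM (EC80). cAMP read by HTRF competitive immunoassay (665/620 nm), converted via calibrator to % of DMSO control; IC50 from duplicate dose-response curves.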

EP2 = biological target: T2, EP2 (Homo sapiens, UniProt P43116); experiment: hEP2 cAMP Assay (SF295 glioblastoma cells, HTRF cAMP, PGE2 75 nM); conditions: antagonistic activity, PGE2 75 nM (EC80)
T2 construct: SF295 glioblastoma cells express high endogenous EP2 and no EP4; host or cells: SF295 glioblastoma cells
How it was run: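 IC50 values derive from duplicate-point curves of percent cAMP relative to DMSO, read by HTRF (665/620 nm) against a cAMP calibrator. Compounds (30 μM to 0.01 nM ranges) were given 45 min at room temperature before 30 min with 75 nM PGE2, in EP2-only SF295 cells with 2 mM IBMX.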

PTGER4 (EP4) = biological target: T3, PTGER4 (EP4) (Homo sapiens, UniProt P35408); experiment: hEP4 b-Arrestin Assay (PathHunter HEK 293 PTGER4 b-arrestin cells, PGE2 20 nM); conditions: antagonistic activity, beta-arrestin assay, HEK 293 PTGER4 cells, PGE2 20 nM (EC80); read-out: hEP4 b-arr IC50
T3 construct: host or cells: HEK 293 (PathHunter, stably transfected)
How it was run: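 PathHunter HEK 293 EP4 b-arrestin enzyme-complementation cells preincubated 15 min at 37° C with compound (10 μM-2 nM or 1 μM-0.2 nM), then stimulated 120 min with 20 nM PGE2 (EC80). Chemiluminescence read; IC50 from duplicate % activity vs DMSO, one-site fit, averaged over repeats.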

PTGER2 (EP2) = biological target: T4, PTGER2 (EP2) (Homo sapiens, UniProt P43116); experiment: hEP2 b-Arrestin Assay (PathHunter HEK 293 PTGER2 b-arrestin cells, PGE2 5 μM); conditions: antagonistic activity, beta-arrestin assay, HEK 293 PTGER2 cells, PGE2 5 μM (EC80); read-out: hEP2 b-arr IC50
T4 construct: host or cells: HEK 293 (PathHunter, stably transfected)
How it was run: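 PathHunter enzyme-fragment complementation in HEK 293 cells: compounds (10 μM-2 nM or 1 μM-0.2 nM) pre-incubated 15 min at 37 °C, then 5 μM PGE2 (EC80) for 120 min at 37 °C. Chemiluminescence read after 1 h detection; IC50 from duplicate dose-response fits, means of repeats.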

T4 sequence (P43116 whole entry): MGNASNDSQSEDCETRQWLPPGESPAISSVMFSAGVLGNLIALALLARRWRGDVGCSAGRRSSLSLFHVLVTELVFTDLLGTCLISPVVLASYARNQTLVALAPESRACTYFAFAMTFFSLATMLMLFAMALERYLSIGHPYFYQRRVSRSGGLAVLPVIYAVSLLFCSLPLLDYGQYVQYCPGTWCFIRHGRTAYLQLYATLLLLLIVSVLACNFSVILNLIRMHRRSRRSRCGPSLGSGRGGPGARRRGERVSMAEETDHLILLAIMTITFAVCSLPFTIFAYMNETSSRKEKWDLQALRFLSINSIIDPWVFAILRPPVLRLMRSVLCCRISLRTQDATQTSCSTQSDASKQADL
T2 sequence (P43116 whole entry): as above
T3 sequence (P35408 whole entry): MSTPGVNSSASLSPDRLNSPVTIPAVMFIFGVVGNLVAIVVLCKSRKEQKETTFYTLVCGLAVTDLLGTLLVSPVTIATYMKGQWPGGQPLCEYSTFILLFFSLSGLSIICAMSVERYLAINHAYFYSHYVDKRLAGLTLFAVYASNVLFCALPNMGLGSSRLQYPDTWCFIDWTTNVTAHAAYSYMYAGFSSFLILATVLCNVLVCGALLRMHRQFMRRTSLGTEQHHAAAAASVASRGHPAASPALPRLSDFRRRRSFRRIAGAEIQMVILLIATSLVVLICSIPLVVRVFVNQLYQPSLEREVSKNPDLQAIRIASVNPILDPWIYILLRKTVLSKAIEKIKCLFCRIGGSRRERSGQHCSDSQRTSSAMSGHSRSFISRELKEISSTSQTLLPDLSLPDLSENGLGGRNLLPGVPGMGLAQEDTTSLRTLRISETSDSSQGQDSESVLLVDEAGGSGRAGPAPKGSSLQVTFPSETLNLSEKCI
T1 sequence (P35408 whole entry): as above

Row | IC50 (EP4) | IC50 (EP2) | IC50 (PTGER4 (EP4)) | IC50 (PTGER2 (EP2)) | Compound
1 | 0.157 µM | 0.073 µM | 0.088 µM | 0.054 µM | CCOc1cc(-c2cc(NCCc3c(OC)ccc4ccccc34)ncn2)sc1CCC(=O)O [Example 131, 3-(3-Ethoxy-5-{6-[2-(2-methoxy-naphthalen-1-yl)-ethylamino]-pyrimidin-4-yl}-thiophen-2-yl)-propionic acid]
2 | 0.047 µM | 0.004 µM | 0.177 µM | 0.005 µM | CCOc1cc(-c2cc(NCCc3c(C)ccc4ccccc34)ncn2)sc1C(=O)O [Example 1, 3-Ethoxy-5-{6-[2-(2-methyl-naphthalen-1-yl)-ethylamino]-pyrimidin-4-yl}-thiophene-2-carboxylic acid]
3 | 0.024 µM | 0.077 µM | 0.017 µM | 0.028 µM | CCOc1cc(-c2cc(NCCc3c(OC)c(OC)cc4ccccc34)ncn2)sc1C(=O)O [Example 14, 5-{6-[2-(2,3-Dimethoxy-naphthalen-1-yl)-ethylamino]-pyrimidin-4-yl}-3-ethoxy-thiophene-2-carboxylic acid]
4 | 0.033 µM | 0.002 µM | 0.053 µM | 0.003 µM | CCOc1cc(-c2cc(NCCc3c(OCC)ccc4ccccc34)ncn2)sc1C(=O)O [Example 27, 3-Ethoxy-5-{6-[2-(2-ethoxy-naphthalen-1-yl)-ethylamino]-pyrimidin-4-yl}-thiophene-2-carboxylic acid]
5 | 0.062 µM | 0.016 µM | 0.077 µM | 0.032 µM | CCOc1cc(-c2cc(NCCc3ccc(F)c4ccccc34)ncn2)sc1C(=O)O [Example 21, 3-Ethoxy-5-{6-[2-(4-fluoro-naphthalen-1-yl)-ethylamino]-pyrimidin-4-yl}-thiophene-2-carboxylic acid]
6 | 0.007 µM | 0.021 µM | 0.009 µM | 0.019 µM | CCOc1cc(-c2cc(NCCc3ccc(C)c4ccccc34)ncn2)sc1C(=O)O [Example 18, 3-Ethoxy-5-{6-[2-(4-methyl-naphthalen-1-yl)-ethylamino]-pyrimidin-4-yl}-thiophene-2-carboxylic acid]
7 | 0.061 µM | 0.023 µM | 0.083 µM | 0.115 µM | CCOc1cc(-c2cc(NCCc3c(OC(C)C)ccc4ccccc34)ncn2)sc1C(=O)O [Example 30, 3-Ethoxy-5-{6-[2-(2-isopropoxy-naphthalen-1-yl)-ethylamino]-pyrimidin-4-yl}-thiophene-2-carboxylic acid]
8 | 0.092 µM | 0.025 µM | 0.196 µM | 0.036 µM | CCOc1cc(-c2cc(NCCc3c(C)ccc4c3cnn4C)ncn2)sc1C(=O)O [Example 79, 5-{6-[2-(1,5-Dimethyl-1H-indazol-4-yl)-ethylamino]-pyrimidin-4-yl}-3-ethoxy-thiophene-2-carboxylic acid]
9 | 0.037 µM | 0.037 µM | 0.037 µM | 0.016 µM | CCOc1cc(-c2cc(NCCc3cccc4[nH]ccc34)ncn2)sc1-c1noc(=O)[nH]1 [Example 137, 3-(3-Ethoxy-5-{6-[2-(1H-indol-4-yl)-ethylamino]-pyrimidin-4-yl}-thiophen-2-yl)-[1,2,4]oxadiazol-5(4H)-one]
10 | 0.177 µM | 0.144 µM | 0.125 µM | 0.057 µM | COc1ccc2c(c1CCNc1cc(-c3cc(C(F)(F)F)c(C(=O)O)s3)ncn1)CCCN2C [Example 154, 5-{6-[2-(6-Methoxy-1-methyl-1,2,3,4-tetrahydro-quinolin-5-yl)-ethylamino]-pyrimidin-4-yl}-3-trifluoromethyl-thiophene-2-carboxylic Acid]
11 | 0.096 µM | 0.015 µM | 0.203 µM | 0.017 µM | CCOc1cc(-c2cc(NCCc3cccc4ccn(C)c34)ncn2)sc1C(=O)O [Example 24, 3-Ethoxy-5-{6-[2-(1-methyl-1H-indol-7-yl)-ethylamino]-pyrimidin-4-yl}-thiophene-2-carboxylic acid]
12 | 0.252 µM | 0.079 µM | 0.667 µM | 0.024 µM | CCOc1cc(-c2cc(NCCc3c(OC)ccc4ccccc34)ncn2)ccc1CC(=O)O [Example 160, (2-Ethoxy-4-{6-[2-(2-methoxy-naphthalen-1-yl)-ethylamino]-pyrimidin-4-yl}-phenyl)-acetic acid]
13 | 0.038 µM | 0.141 µM | 0.017 µM | 0.156 µM | CCOc1cc(-c2cc(NCCc3ccc(OC)c4ccccc34)ncn2)sc1C(=O)O [Example 59, 3-Ethoxy-5-{6-[2-(4-methoxy-naphthalen-1-yl)-ethylamino]-pyrimidin-4-yl}-thiophene-2-carboxylic acid]
14 | 1.25 µM | 0.008 µM | 0.034 µM | 0.013 µM | CCc1nc(-c2cc(NCCc3c(OC)ccc4ccccc34)ncn2)sc1-c1noc(=O)[nH]1 [Example 190, 3-(4-Ethyl-2-{6-[2-(2-methoxy-naphthalen-1-yl)-ethylamino]-pyrimidin-4-yl}-thiazol-5-yl)-[1,2,4]oxadiazol-5(4H)-one]
15 | 0.044 µM | 0.01 µM | 0.053 µM | 0.01 µM | CCOc1cc(-c2cc(NCCc3c(OCC)ccc4c3OCO4)ncn2)sc1C(=O)O [Example 45, 3-Ethoxy-5-{6-[2-(5-ethoxy-benzo[1,3]dioxol-4-yl)-ethylamino]-pyrimidin-4-yl}-thiophene-2-carboxylic acid]
16 | 1.04 µM | 0.143 µM | 1.91 µM | 0.043 µM | COc1ccc2ccccc2c1CCNc1cc(-c2cc(OCCN(C)C)c(C(=O)O)s2)ncn1 [Example 157, 3-(2-Dimethylamino-ethoxy)-5-{6-[2-(2-methoxy-naphthalen-1-yl)-ethylamino]-pyrimidin-4-yl}-thiophene-2-carboxylic Acid]
17 | 0.044 µM | 0.01 µM | 0.04 µM | 0.007 µM | CCOc1nc(-c2cc(NCCc3c(OC)ccc4ccccc34)ncn2)sc1C(=O)O [Example 147, 4-Ethoxy-2-{6-[2-(2-methoxy-naphthalen-1-yl)-ethylamino]-pyrimidin-4-yl}-thiazole-5-carboxylic Acid]
18 | 0.035 µM | 0.031 µM | 0.015 µM | 0.032 µM | CCOc1cc(-c2cc(NCCc3cc(OC)cc4ccccc34)ncn2)sc1C(=O)O [Example 42, 3-Ethoxy-5-{6-[2-(3-methoxy-naphthalen-1-yl)-ethylamino]-pyrimidin-4-yl}-thiophene-2-carboxylic acid]
19 | 0.105 µM | 0.09 µM | 0.021 µM | 0.031 µM | CCOc1cc(-c2cc(NCCc3cccc4cc[nH]c34)ncn2)sc1-c1noc(=O)[nH]1 [Example 143, 3-(3-Ethoxy-5-{6-[2-(1H-indol-7-yl)-ethylamino]-pyrimidin-4-yl}-thiophen-2-yl)-[1,2,4]oxadiazol-5(4H)-one]
20 | 0.18 µM | 0.202 µM | 0.294 µM | 0.08 µM | CCOc1cc(-c2cc(NCCc3cccc4c(F)cccc34)ncn2)ccc1CC(=O)O [Example 163, (2-Ethoxy-4-{6-[2-(5-fluoro-naphthalen-1-yl)-ethylamino]-pyrimidin-4-yl}-phenyl)-acetic acid]
21 | 0.14 µM | 0.015 µM | 0.175 µM | 0.01 µM | CSc1cc(-c2cc(NCCc3cccc4c(C)cccc34)ncn2)ccc1C(=O)O [Example 173, 4-{6-[2-(5-Methyl-naphthalen-1-yl)-ethylamino]-pyrimidin-4-yl}-2-methylsulfanyl-benzoic acid]
22 | 0.13 µM | 0.032 µM | 0.244 µM | 0.03 µM | CCOc1cc(-c2cc(NCCc3c(C)ccc4cnccc34)ncn2)sc1C(=O)O [Example 85, 3-Ethoxy-5-{6-[2-(6-methyl-isoquinolin-5-yl)-ethylamino]-pyrimidin-4-yl}-thiophene-2-carboxylic acid]
23 | 0.022 µM | 0.324 µM | 0.282 µM | 0.059 µM | CCOc1cc(-c2cc(NCCc3cccc4ncccc34)ncn2)sc1-c1noc(=O)[nH]1 [Example 188, 3-{3-Ethoxy-5-[6-(2-quinolin-5-yl-ethylamino)-pyrimidin-4-yl]-thiophen-2-yl}-[1,2,4]oxadiazol-5(4H)-one]

Row | Compound | IC50 (EP4) | IC50 (EP2) | IC50 (PTGER4 (EP4)) | IC50 (PTGER2 (EP2))
24 | CCOc1ccc2ccccc2c1CCNc1cc(-c2ccc(C(=O)O)c(OC3CCC3)c2)ncn1 [Example 26, 2-Cyclobutoxy-4-{6-[2-(2-ethoxy-naphthalen-1-yl)-ethylamino]-pyrimidin-4-yl}-benzoic acid] | 0.566 µM | 0.011 µM | 0.392 µM | 0.01 µM
